Measurements from ChEMBL document CHEMBL1135170, “4,4-Disubstituted cyclohexylamine NK(1) receptor antagonists II” (Bioorg Med Chem Lett, 2002).

What was measured:
Substance-P receptor = Substance-P receptor (Homo sapiens, UniProt P25103); experiment: Displacement of [125 I] -labelled substance P from the cloned Tachykinin receptor 1 expressed in CHO cells; type: cell-based
Gerbillinae [1] = experiment: Compound was evaluated for the inhibition of GR 73632-induced foot tapping in gerbils after intravenous administration at 2 hour; type: functional; settings: read-out: ID50 (the source's name)
Gerbillinae [2] = experiment: Compound was evaluated for the inhibition of GR 73632-induced foot tapping in gerbils after intravenous administration at 24 hr at a concentration of 3 mg/kg; type: functional
[3] = biological target: Voltage-gated inwardly rectifying potassium channel KCNH2 (Homo sapiens, UniProt Q12809); experiment: Compound was evaluated for the displacement of labelled MK-499 from the cloned channel expressed in HEK cells (Ikr channel); type: cell-based, HEK293
Voltage-gated inwardly rectifying potassium channel KCNH2, sequence (Q12809 whole entry): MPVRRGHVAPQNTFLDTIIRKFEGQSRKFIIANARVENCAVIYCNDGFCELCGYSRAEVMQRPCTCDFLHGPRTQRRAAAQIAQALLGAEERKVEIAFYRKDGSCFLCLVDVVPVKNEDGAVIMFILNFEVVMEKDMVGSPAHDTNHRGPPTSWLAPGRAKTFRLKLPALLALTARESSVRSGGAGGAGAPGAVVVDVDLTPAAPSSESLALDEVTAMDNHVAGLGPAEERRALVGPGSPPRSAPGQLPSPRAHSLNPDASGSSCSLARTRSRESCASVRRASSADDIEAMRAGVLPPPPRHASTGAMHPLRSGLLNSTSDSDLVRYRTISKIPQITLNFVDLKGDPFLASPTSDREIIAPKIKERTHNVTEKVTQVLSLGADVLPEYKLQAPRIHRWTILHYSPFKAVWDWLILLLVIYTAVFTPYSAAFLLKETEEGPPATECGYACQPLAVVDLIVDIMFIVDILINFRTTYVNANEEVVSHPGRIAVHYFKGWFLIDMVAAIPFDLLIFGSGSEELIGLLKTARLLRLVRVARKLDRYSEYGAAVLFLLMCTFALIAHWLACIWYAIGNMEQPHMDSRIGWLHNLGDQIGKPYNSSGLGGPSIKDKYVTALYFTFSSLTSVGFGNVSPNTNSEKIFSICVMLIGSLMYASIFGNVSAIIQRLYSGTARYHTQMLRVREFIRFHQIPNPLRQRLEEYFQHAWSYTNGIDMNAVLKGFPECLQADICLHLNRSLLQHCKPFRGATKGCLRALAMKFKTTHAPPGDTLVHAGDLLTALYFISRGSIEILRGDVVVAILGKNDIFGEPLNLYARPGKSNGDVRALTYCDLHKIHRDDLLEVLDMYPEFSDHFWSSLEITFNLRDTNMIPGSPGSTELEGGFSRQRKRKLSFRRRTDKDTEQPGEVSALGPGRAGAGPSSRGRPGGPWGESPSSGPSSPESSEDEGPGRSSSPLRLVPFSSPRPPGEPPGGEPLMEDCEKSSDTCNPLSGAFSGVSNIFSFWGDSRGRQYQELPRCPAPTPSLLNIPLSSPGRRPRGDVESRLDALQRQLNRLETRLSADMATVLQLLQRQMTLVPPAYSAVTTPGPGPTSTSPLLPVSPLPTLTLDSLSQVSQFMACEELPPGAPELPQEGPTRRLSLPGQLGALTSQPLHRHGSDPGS

Gerbillinae [4] = experiment: Compound was evaluated for the inhibition of GR 73632-induced foot tapping in gerbils after intravenous administration at 24 hr; type: functional; settings: read-out: ID50 (the source's name)
[5] = Bioavailability in rat; type: ADME, organism-based; settings: in vivo
Gerbillinae [6] = experiment: Compound was evaluated for the inhibition of GR 73632-induced foot tapping in gerbils after intravenous administration; type: functional; settings: read-out: ID50 (the source's name)
Gerbillinae [7] = experiment: Compound was evaluated for the inhibition of GR 73632-induced foot tapping in gerbils after intravenous administration at 2 hour at a dose 3 mg/kg iv; type: functional
Gerbillinae [8] = experiment: Compound was evaluated for the inhibition of GR 73632-induced foot tapping in gerbils after intravenous administration at 0 (initial) hour; type: functional; settings: read-out: ID50 (the source's name)
Gerbillinae [9] = experiment: Compound was evaluated for the inhibition of GR 73632-induced foot tapping in gerbils 2 hour after oral administration; type: functional; settings: read-out: ID50 (the source's name)

Substance-P receptor, sequence (P25103 whole entry): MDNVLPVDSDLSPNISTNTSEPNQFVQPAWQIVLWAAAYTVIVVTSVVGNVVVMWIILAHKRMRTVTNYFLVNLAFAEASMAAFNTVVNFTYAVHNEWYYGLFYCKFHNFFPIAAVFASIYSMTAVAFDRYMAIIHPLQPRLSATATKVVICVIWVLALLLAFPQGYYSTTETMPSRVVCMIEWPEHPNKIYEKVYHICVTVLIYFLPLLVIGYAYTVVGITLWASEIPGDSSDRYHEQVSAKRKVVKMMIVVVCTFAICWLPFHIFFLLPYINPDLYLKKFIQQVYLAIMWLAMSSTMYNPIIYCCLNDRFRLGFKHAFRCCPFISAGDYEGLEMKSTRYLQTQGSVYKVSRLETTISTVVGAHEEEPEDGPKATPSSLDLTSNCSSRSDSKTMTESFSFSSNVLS

Row | IC50 (Substance-P receptor) | Structure (SMILES) | Ki [3] | further results
1 | 0.39 nM | CC(C(=O)N[C@]1(c2ccccc2)CC[C@@H](N2CCN(C(C)C)CC2)CC1)c1cc(C(F)(F)F)cc(C(F)(F)F)c1 (some centres not stated) |  | 
2 | 0.35 nM | CC(C(=O)NC1(c2ccccc2)CCC(N2CCC3(CC2)CCC(C)(C)O3)CC1)c1cc(C(F)(F)F)cc(C(F)(F)F)c1 (configuration not stated) | 950 nM | ED50 (Gerbillinae [1]): 1 mg/kg; inhibition in vivo at 3 mg/kg (Gerbillinae [2]): 72%
3 | 0.42 nM | CC(C(=O)NC1(c2ccccc2)CCC(N2CCC3(CCOC3=O)CC2)CC1)c1cc(C(F)(F)F)cc(C(F)(F)F)c1 (configuration not stated) | 490 nM | 
4 | 2.4 nM | CC(C(=O)N[C@]1(c2ccccc2)CC[C@H](N2CCCCC2)CC1)c1cc(C(F)(F)F)cc(C(F)(F)F)c1 (some centres not stated) |  | 
5 | 0.3 nM | CC(C(=O)N[C@]1(c2ccccc2)CC[C@@H](N2CCC3(CC2)OCCO3)CC1)c1cc(C(F)(F)F)cc(C(F)(F)F)c1 (some centres not stated) |  | ED50 (Gerbillinae [4]): 5.4 mg/kg
6 | 0.34 nM | O=C(NCc1cc(C(F)(F)F)cc(C(F)(F)F)c1)[C@]1(c2ccccc2)CC[C@@H](N2CCC(c3ccc(F)cc3)CC2)CC1 |  | bioavailability [5]: 70%; ED50 (Gerbillinae [6]): 1.9 mg/kg; inhibition in vivo at 3 mg/kg (Gerbillinae [7]): 15%
7 | 0.33 nM | CC(C(=O)NC1(c2ccccc2)CCC(N2CCC(O)(Cc3ccccc3)CC2)CC1)c1cc(C(F)(F)F)cc(C(F)(F)F)c1 (configuration not stated) | 260 nM | 
8 | 2.1 nM | CC(C(=O)NC1(c2ccccc2)CCC(N2CCC3(CCC(=O)O3)CC2)CC1)c1cc(C(F)(F)F)cc(C(F)(F)F)c1 (configuration not stated) | 400 nM | 
9 | 0.22 nM | CC(C(=O)NC1(c2ccccc2)CCC(N2CCC3(CCCO3)CC2)CC1)c1cc(C(F)(F)F)cc(C(F)(F)F)c1 (configuration not stated) | 730 nM | ED50 (Gerbillinae [1]): 0.7 mg/kg; ED50 (Gerbillinae [4]): 3.1 mg/kg
10 | 1.6 nM | CC(C(=O)N[C@]1(c2ccccc2)CC[C@@H](N2CCC(=O)CC2)CC1)c1cc(C(F)(F)F)cc(C(F)(F)F)c1 (some centres not stated) |  | 
11 | 0.85 nM | CC(C(=O)N[C@]1(c2ccccc2)CC[C@@H](N2CCC(O)CC2)CC1)c1cc(C(F)(F)F)cc(C(F)(F)F)c1 (some centres not stated) | 1400 nM | 
12 |  | CC(C(=O)N[C@]1(c2ccccc2)CC[C@@H](N2CCC(c3ccc(F)cc3)CC2)CC1)c1cc(C(F)(F)F)cc(C(F)(F)F)c1 (some centres not stated) | 43 nM | ED50 (Gerbillinae [8]): 1.7 mg/kg; ED50 (Gerbillinae [1]): 0.6 mg/kg; ED50 (Gerbillinae [4]): 1.8 mg/kg
13 | 1.2 nM | CC1CCN([C@H]2CC[C@](NC(=O)C(C)c3cc(C(F)(F)F)cc(C(F)(F)F)c3)(c3ccccc3)CC2)CC1 (some centres not stated) | 460 nM | 
14 | 0.34 nM | CC(C(=O)NC1(c2ccccc2)CCC(N2CCC3(CCOC3)CC2)CC1)c1cc(C(F)(F)F)cc(C(F)(F)F)c1 (configuration not stated) |  | ED50 (Gerbillinae [8]): 1.4 mg/kg; ED50 (Gerbillinae [1]): 1.1 mg/kg; ED50 (Gerbillinae [4]): 1.6 mg/kg; ED50 (Gerbillinae [9]): 2.2 mg/kg
15 | 22 nM | CC(C(=O)N[C@]1(c2ccccc2)CC[C@H](N(C)C)CC1)c1cc(C(F)(F)F)cc(C(F)(F)F)c1 (some centres not stated) |  | 
